Assay results as given in patent US6046219A, “Method for the treatment of conditions mediated by collagen formation together with cell proliferation by application of inhibitors of protein hydroxylation” (Cornell Research Foundation, Inc., priority 1997, dated 2000).
Entries after “also recorded” stand apart in the source; their conditions may differ.

Tests used:
[1] = test system: prolyl 4-hydroxylase in human lung fibroblast line MRC-5; assay: Assay of cellular human prolyl 4-hydroxylase / collagen secretion in MRC-5 lung fibroblasts; format: cell-based; settings: human lung fibroblasts MRC-5, FIG. 5a-f
Procedure: FIGS. 5a-f show, as percent of uninhibited controls, the suppressive effect of six hydroxypyridone compounds on prolyl 4-hydroxylation in a human lung fibroblast line ("MRC-5"). Those cells were pretreated with inhibitor for 30 minutes prior to routine metabolic labeling with tritiated proline ("Pro") for 24 hours, followed by standard hydrolysis and separation of amino acids from both supernatant and cells for determination of proline conversion into hydroxyproline ("Hyp").
The established human lung fibroblast line MRC-5 was used, maintained, and propagated by routine cell culture techniques.
SMC or MRC-5 cells (3-5×10^6 cells/35 mm well) were labeled in the presence or absence of hydroxypyridones, with ^3 H-proline (Pro) (4 μCi/ml) for 24 hours in proline- and serum-free Dulbecco […] ("DMEM") containing 50 μg/ml sodium ascorbate and 20 μg/ml β-aminopropionitrile. […] The hydrolysate was derivatized with phenylisothiocyanate and analyzed for ^3 H-proline ("Pro") and ^3 H-hydroxyproline ("Hyp") by HPLC on a reverse-phase C18 column, using an automated HPLC system (Hewlett-Packard, Wilmington, Del.) with an in-line scintillation counter (Inus Systems, Inc., Tampa, Fla.). The position of proline and hydroxyproline was determined from tritiated standards.

[2] = test system: deoxyhypusyl hydroxylase activity in human B-lymphocytes; assay: Cellular deoxyhypusyl hydroxylase in human B-lymphocytes; format: cell-based; settings: FIG. 3a
Procedure: In FIG. 3a, the effect on the human enzyme was determined by measuring in proliferating cultured B-lymphocytes the covalent incorporation of tritiated spermidine-derived label into cellular protein, after standard hydrolysis, chromatographic separation of amino acids, and expression of the results relative to uninhibited controls. In FIG. 3b, a standard chromatographic elution profile is shown as obtained from cultured human smooth muscle cells ("SMC"), grown out of coronary atherosclerotic lesions and metabolically labeled in the absence and presence of L-mimosine. […]
The cellular conversion of the precursor deoxyhypusine to the hydroxylated hypusine in cells was examined, after preincubation with the inhibitor for 60 minutes, by labeling the human cells with ^3 H-spermidine (5 μCi/ml) in 25 cm^2 flasks (1×10^6 cells/flask) for 24 hours prior to cell lysis, precipitation with 10% TCA containing 1 mM each of putrescine, spermidine, and spermine, and hydrolysis in 6 N HCl at 110° C. for 16 hours. The hydrolysate was analyzed for labeled amino acids on an amino acid analyzer by published methods (Park et al., J. Biol. Chem., 257:7217-7222 (1982), which is hereby incorporated by reference). The retention of purified hypusine and deoxyhypusine was determined from standards.

[3] = test system: type III procollagen; assay: Type III procollagen secretion by SMC; format: cell-based; settings: human SMC, FIG. 6a
Procedure: Type III collagen biosynthesis (FIG. 6a) was assessed by a commercial radioimmunoassay using a monoclonal antibody to the N-terminal propeptide of type III procollagen. Plasminogen activator inhibitor-1 ("PAI-1") activity was measured by a standard enzymatic method. Type I collagen biosynthesis (FIG. 6b) was assessed by routine Western blot using a monoclonal antibody to the C-terminal propeptide of type I procollagen.
SMC or MRC-5 cells (3-5×10^6 cells/35 mm well), incubated in serum-free DMEM containing 50 μg/ml sodium ascorbate and 20 μg/ml β-aminopropionitrile, are exposed for 24 hours to increasing concentrations of hydroxypyridones. After centrifugation, to clear any cellular debris, these supernatants are used to determine the levels of type I and III procollagens, using commercially available radioimmunoassays (Incstar and Behringwerke, respectively).
Human SMC (3-5×10^5 cells/35 mm well), grown to confluency and incubated in serum-free DMEM containing 50 μg/ml sodium ascorbate and 20 μg/ml β-aminopropionitrile, were exposed for 24 hours to increasing concentrations of test compounds. […] Type I procollagen biosynthesis also was quantified by Western analysis in the following manner. […] Immunoblots were scanned with a UMAX UC630 flatbed scanner and quantified densitometrically using standard software.

[4] = test system: cellular deoxyhypusyl hydroxylase; settings: Hanauske-Abel et al. 1994; cited from earlier work
[5] = test system: cell proliferation; settings: Hanauske-Abel et al. 1994; cited from earlier work
[6] = target: T1, prolyl 4-hydroxylase in human coronary smooth muscle cells (SMC) (Homo sapiens, UniProt P13674); assay: Assay of cellular human prolyl 4-hydroxylase in lesion-derived SMC (3H-proline labeling); format: cell-based; settings: upon removal of the inhibitor
T1 construct: 3H-proline to 3H-hydroxyproline conversion
Procedure: Those SMC, immunocytochemically identified by reactivity to contractile α-actinas shown in FIGS. 4b and 4c were pretreated with inhibitor for 30 minutes prior to routine metabolic labeling with tritiated proline ("^3 H-Pro") for 24 hours, followed by standard hydrolysis and separation of amino acids from both supernatant and cells. The degree of inhibition of scar collagen formation was determined by measuring formation of tritiated hydroxyproline ("^3 H-Hyp").
Human coronary artery smooth muscle cells ("SMC") were isolated from specimens collected immediately after directional rotary atherectomy (Simpson AtheroCath, DVI, Inc., Redwood City, Calif.). […] To verify the SMC phenotype of the cultures, cells were plated onto LabTek 8-chamber slides and stained by indirect immunofluorescence for the SMC marker contractile α-actin, using a mouse monoclonal antibody specific for the contractile smooth muscle α-actin (clone No. IA4; Sigma) which was detected with FITC- or peroxidase-labeled […] (Sigma). […] Results were photodocumented with a Nikon Labophot 2 fluorescence microscope. […]

T1 sequence (P13674 18-534): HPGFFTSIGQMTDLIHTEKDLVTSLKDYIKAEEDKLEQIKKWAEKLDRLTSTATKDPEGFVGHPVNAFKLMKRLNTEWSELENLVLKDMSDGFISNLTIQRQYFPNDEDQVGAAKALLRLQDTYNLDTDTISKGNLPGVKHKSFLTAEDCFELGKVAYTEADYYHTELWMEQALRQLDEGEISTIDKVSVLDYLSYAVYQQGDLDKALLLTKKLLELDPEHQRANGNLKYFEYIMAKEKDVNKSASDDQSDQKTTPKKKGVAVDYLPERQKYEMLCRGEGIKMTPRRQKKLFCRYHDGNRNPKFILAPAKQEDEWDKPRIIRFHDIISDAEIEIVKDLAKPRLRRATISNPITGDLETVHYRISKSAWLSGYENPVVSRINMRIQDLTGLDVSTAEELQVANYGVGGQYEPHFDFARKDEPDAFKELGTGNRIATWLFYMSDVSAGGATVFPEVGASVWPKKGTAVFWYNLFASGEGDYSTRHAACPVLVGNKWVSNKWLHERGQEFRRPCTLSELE
T1 sequence (P07237 18-508 partner): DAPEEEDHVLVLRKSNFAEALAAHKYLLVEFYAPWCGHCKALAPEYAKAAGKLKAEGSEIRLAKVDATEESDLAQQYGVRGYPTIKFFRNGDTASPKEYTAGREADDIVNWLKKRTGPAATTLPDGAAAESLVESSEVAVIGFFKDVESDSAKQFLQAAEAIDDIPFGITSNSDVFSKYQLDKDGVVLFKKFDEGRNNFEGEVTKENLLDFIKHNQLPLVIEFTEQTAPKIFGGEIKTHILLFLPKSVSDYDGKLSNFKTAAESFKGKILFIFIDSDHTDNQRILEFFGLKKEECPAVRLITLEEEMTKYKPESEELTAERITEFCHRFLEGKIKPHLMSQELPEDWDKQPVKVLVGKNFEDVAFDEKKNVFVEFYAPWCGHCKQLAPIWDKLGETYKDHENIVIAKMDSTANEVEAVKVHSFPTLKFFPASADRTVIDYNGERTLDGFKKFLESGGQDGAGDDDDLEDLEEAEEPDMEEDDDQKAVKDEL

SMILES: N[C@@H](Cn1ccc(=O)c(O)c1)C(=O)O [L-Mimosine]
- secretion of hydroxyproline-containing proteins (collagen secretion) [1]: selectively inhibited
- inhibition of deoxyhypusyl hydroxylase activity [2]: inhibit deoxyhypusyl hydroxylase activity
- inhibition of secretion of procollagen type III [3]: potent inhibitor; also recorded: selectively suppressive effect
- inhibition of cellular deoxyhypusyl hydroxylase activity [4]: block the cellular deoxyhypusyl hydroxylase activity
- inhibition of the multiplication of certain cells [5]: reversible inhibitor
- reversibility of suppression of cellular prolyl hydroxylase activity [6]: rapidly reversible
